{"source": "patent US20100234832A1", "about": "“METHOD FOR VASCULAR TREATMENT” (priority 2009, published 2010)", "tested_on": "femoral nerve", "experiment": "Femoral nerve block with lidocaine injected under echographic/ultrasound control", "assay_type": "in vivo, human", "procedure": "To accomplish femoral nerve block, an appropriate amount of local anesthetic is injected in the vicinity of femoral nerve close to the femoral artery under ultrasound control. After anesthesia takes effect, a needle is inserted through the skin into the vein to be treated and an optical fiber is introduced inside it. A typical procedure to carry out this task is to insert a guide wire inside the vein through needle's lumen, after the anesthesia has been introduced and takes effect. Once the guide wire is inserted, a dilator is used to slightly increase the size of the punction made onto the skin, in order to accomplish an easy catheter insertion. After catheter is inserted, guide wire is extracted and optical fiber is inserted through the catheter inside the vein and is advanced to the desired start position.\nA main objective of this femoral block is to achieve sensory nerve function for blockage only, thus the least amount of lidocaine used yields the least probability for motor function to be affected. […] As a consequence, there is some minimal amount needed, which might differ by patient and procedure for an adequate and complete sensory block.\nLidocaine solutions much above 0.5% are thus not preferred, as the likelihood of concomitant loss of motor control along with the desired sensory blockage becomes too great, rendering patient recovery period longer. Concentration of other local anesthetics, with differing activity, would have a somewhat different effective range of preferred use.\nA safe and effective femoral block procedure is achieved by sequentially carrying out the following steps: • 1. Attach monitors and if necessary give light sedation. • 2. Put patient in supine position with the operative leg slightly abducted. • 3. Prepare the groin. • 4. Place a transducer with the appropriate frequency range (10-12 MHz) along the inguinal crease. If the femoral artery and nerve are deep (>4 cm), use a 7 MHz transducer. • 5. Optimize machine imaging capability; select appropriate depth of e d (usually within 1-3 cm), focus range and gain. • 6. Identify the femoral artery. […]"}
{"smiles": "CCN(CC)CC(=O)Nc1c(C)cccc1C", "note": "[lidocaine]", "values": [{"measurement": "anesthetic effect (sensory femoral nerve block)", "setting": "0.1% lidocaine, femoral block", "value": "functioned well"}, {"measurement": "motor function blockage", "setting": "20 ml of 1% lidocaine, femoral block", "value": "also blocked motor function"}, {"measurement": "femoral block", "setting": "20 ml of lidocaine, concentration 0.1% to 0.5%, injected under echographic control", "value": "accomplish the femoral block"}]}
